Assay results taken from patent US20060069132A1, “Azolecarboxamide herbicides” (priority 2004, published 2006).

How the values were obtained:
velvetleaf [1] = assay: Test B pre-/postemergence herbicide test; format: in vivo, Abutilon theophrasti; conditions: for Plant response rating, Velvetleaf: preemergence; for Velvetleaf plant response rating: postemergence, visual rating, scale 0 (no effect) to 100 (complete control)
How it was run: (§1)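 Pre: seeds sown, then sprayed. Post: 1–4-leaf plants (2–18 cm) sprayed at the same time. Paddy: flooded, treated at 2-leaf stage. Formulation: non-phytotoxic solvent with surfactant. Greenhouse 13–15 days; visual 0–100 score relative to controls.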

giant foxtail [2] = assay: Test A pre-/postemergence herbicide test; format: in vivo, Setaria faberi
How it was run: (§2)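 Plants are held in greenhouse about ten days after treatment, then compared with untreated controls and scored 0 (no effect) to 100 (complete control). Preemergence dosing is a directed soil spray on sown sandy loam; postemergence dosing is spray to runoff at 2–10 cm height.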

wild oat = assay: Test B postemergence herbicide test; format: in vivo, Avena fatua; conditions: postemergence, visual rating, scale 0 (no effect) to 100 (complete control)
How it was run: (§3)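 Treated at 2-leaf (paddy) or 1–4-leaf, 2–18 cm (postemergence); greenhouse 13–15 d; visual score vs control, 0 none to 100 complete control; dash = not tested.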

large crabgrass [3] = assay: Test B pre-/postemergence herbicide test; format: in vivo, Digitaria sanguinalis; conditions: for Plant response rating, Crabgrass, Large: preemergence; for Crabgrass, Large plant response rating: postemergence, visual rating, scale 0 (no effect) to 100 (complete control)
How it was run: as §1

[4] = system: small flower umbrella sedge; assay: Test B flooded paddy test; format: in vivo, Cyperus difformis; conditions: 1000 g ai/ha, visual rating, scale 0 to 100 (0 no effect, 100 complete control), 13 to 15 days
How it was run: (§4)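 After treating 2-leaf paddy plants or 2–18 cm postemergence plants (1 to 4 leaves) with formulated chemical, researchers kept them in a greenhouse for 13–15 days. Effects were judged visually versus controls: 0 indicates none, 100 total control.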

blackgrass = assay: Test B postemergence herbicide test; format: in vivo, Alopecurus myosuroides; conditions: postemergence, visual rating, scale 0 (no effect) to 100 (complete control)
How it was run: as §4

ducksalad = assay: Test B flooded paddy test; format: in vivo, Heteranthera limosa; conditions: 1000 g ai/ha, visual rating, scale 0 to 100 (0 no effect, 100 complete control), 13 to 15 days
How it was run: as §4

large crabgrass [5] = assay: Test A pre-/postemergence herbicide test; format: in vivo, Digitaria sanguinalis
How it was run: as §2

redroot pigweed = assay: Test A pre-/postemergence herbicide test; format: in vivo, Amaranthus retroflexus
How it was run: as §2

cocklebur = assay: Test B pre-/postemergence herbicide test; format: in vivo, Xanthium strumarium; conditions: for Plant response rating, Cocklebur: preemergence; for Cocklebur plant response rating: postemergence, visual rating, scale 0 (no effect) to 100 (complete control)
How it was run: (§5)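 Flooded paddy rice and barnyardgrass were treated at the 2-leaf stage; upland plantings received compound either on sown seed or on 1- to 4-leaf seedlings. All were kept 13–15 days in a greenhouse and scored visually, 0–100, relative to untreated plants.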

barnyardgrass [6] = assay: Test A pre-/postemergence herbicide test; format: in vivo, Echinochloa crus-galli
How it was run: as §2

rice [7] = assay: Test B flooded paddy test; format: in vivo, Oryza sativa; conditions: 1000 g ai/ha, visual rating, scale 0 to 100 (0 no effect, 100 complete control), 13 to 15 days
How it was run: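 Plants grow to 1- to 4-leaf stage (2–18 cm) for postemergence spraying, or to 2-leaf stage for the paddy test. Formulated compound is applied. Greenhouse holding lasts 13–15 days. Response is scored visually relative to controls, 0 no effect to 100 complete control; a dash means no result.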

pigweed = assay: Test B pre-/postemergence herbicide test; format: in vivo, Amaranthus retroflexus; conditions: for Plant response rating, Pigweed: preemergence; for Pigweed plant response rating: postemergence, visual rating, scale 0 (no effect) to 100 (complete control)
How it was run: as §1

giant foxtail [8] = assay: Test B pre-/postemergence herbicide test; format: in vivo, Setaria faberi; conditions: for Plant response rating, Foxtail, Giant: preemergence; for Foxtail, Giant plant response rating: postemergence, visual rating, scale 0 (no effect) to 100 (complete control)
How it was run: as §1

Surinam grass = assay: Test B pre-/postemergence herbicide test; format: in vivo, Urochloa decumbens; conditions: for Plant response rating, Surinam Grass: preemergence; for Surinam Grass plant response rating: postemergence, visual rating, scale 0 (no effect) to 100 (complete control)
How it was run: as §1

rice [9] = assay: Test B pre-/postemergence herbicide test; format: in vivo, Oryza sativa; conditions: preemergence, 125 g ai/ha; 0 to 100 scale, 0 is no effect, 100 is complete control
How it was run: as §1

velvetleaf [10] = assay: Test A pre-/postemergence herbicide test; format: in vivo, Abutilon theophrasti
How it was run: as §2

wheat = assay: Test B postemergence herbicide test; format: in vivo, Triticum aestivum; parameters: key to Wheat plant response rating: 0 = no effect, 100 = complete control; conditions: postemergence, visual rating, scale 0 (no effect) to 100 (complete control)
How it was run: as §3

corn = assay: Test B pre-/postemergence herbicide test; format: in vivo, Zea mays; conditions: for Plant response rating, Corn: preemergence; for Corn plant response rating: postemergence, visual rating, scale 0 (no effect) to 100 (complete control)
How it was run: as §1

morningglory [11] = assay: Test A pre-/postemergence herbicide test; format: in vivo, Ipomoea spp.
How it was run: as §2

barnyardgrass [12] = assay: Test B pre-/postemergence herbicide test; format: in vivo, Echinochloa crus-galli; conditions: for Plant response rating, Barnyardgrass: preemergence; for Barnyardgrass plant response rating: postemergence, visual rating, scale 0 (no effect) to 100 (complete control)
How it was run: as §5

morningglory [13] = assay: Test B pre-/postemergence herbicide test; format: in vivo, Ipomoea coccinea; conditions: for Plant response rating, Morningglory: preemergence; for Morningglory plant response rating: postemergence, visual rating, scale 0 (no effect) to 100 (complete control)
How it was run: as §5

barnyardgrass [14] = assay: Test B flooded paddy test; format: in vivo, Echinochloa crus-galli; conditions: 1000 g ai/ha, visual rating, scale 0 to 100 (0 no effect, 100 complete control), 13 to 15 days
How it was run: as §4

lambsquarters = assay: Test B pre-/postemergence herbicide test; format: in vivo, Chenopodium album; conditions: for Plant response rating, Lambsquarters: preemergence; for Lambsquarters plant response rating: postemergence, visual rating, scale 0 (no effect) to 100 (complete control)
How it was run: as §1

[15] = 500 g ai/ha, visual rating 0-100, 0 no effect, 100 complete control
[16] = 125 g ai/ha, 0 to 100 scale, 0 is no effect, 100 is complete control
[17] = Postemergence, 500 g ai/ha, 0 to 100 scale, 0 no effect, 100 complete control
[18] = Postemergence, 2000 g ai/ha, 0 to 100 scale, 0 no effect, 100 complete control
[19] = Preemergence, 500 g ai/ha, visual rating, 0 to 100 scale (0 no effect, 100 complete control)
[20] = Preemergence, 2000 g ai/ha, visual rating, 0 to 100 scale (0 no effect, 100 complete control)
[21] = preemergence, 500 g ai/ha, visual injury, 0 to 100 scale (0 no effect, 100 complete control)

Cn1nc(C(C)(C)C)cc1C(=O)Nc1cccc(C#N)c1 [Compound 121]
100: Plant response rating, Pigweed (redroot pigweed; [18]) | Pigweed plant response rating (redroot pigweed; [20]) | Plant response rating, Pigweed (pigweed; [15]) | Plant response rating, Lambsquarters (lambsquarters; [15])
70: Plant response rating, Foxtail, Giant (giant foxtail [8]; [15]) | Plant response rating, Lambsquarters (lambsquarters; [16])
95: Pigweed plant response rating (redroot pigweed; [21])
40: Barnyardgrass plant response rating (barnyardgrass [6]; [20])
20: Plant response rating, Velvetleaf (velvetleaf [1]; [15]) | Velvetleaf plant response rating (velvetleaf [1]; 500 g ai/ha) | Cocklebur plant response rating (cocklebur; 500 g ai/ha) | Plant response rating, Surinam Grass (Surinam grass; [15]) | Morningglory plant response rating (morningglory [11]; [17]) | Plant response rating, Morningglory (morningglory [11]; [18]) | Morningglory plant response rating (morningglory [11]; [20]) | Plant response rating, Morningglory (morningglory [13]; [15])
10: Velvetleaf plant response rating (velvetleaf [1]; 125 g ai/ha) | Oat, Wild plant response rating (wild oat; 125 g ai/ha) | Crabgrass, Large plant response rating (large crabgrass [3]; 125 g ai/ha) | Crabgrass, Large plant response rating (large crabgrass [3]; 500 g ai/ha) | Crabgrass, Large plant response rating (large crabgrass [5]; [17]) | Plant response rating, Crabgrass, Large (large crabgrass [5]; [18]) | Crabgrass, Large plant response rating (large crabgrass [5]; [19]) | Cocklebur plant response rating (cocklebur; 125 g ai/ha) | Barnyardgrass plant response rating (barnyardgrass [6]; [17]) | Foxtail, Giant plant response rating (giant foxtail [8]; 500 g ai/ha) | Surinam Grass plant response rating (Surinam grass; 125 g ai/ha) | Velvetleaf plant response rating (velvetleaf [10]; [17]) | Velvetleaf plant response rating (velvetleaf [10]; [21]) | Corn plant response rating (corn; 500 g ai/ha)
5: Morningglory plant response rating (morningglory [11]; [19])
75: Foxtail, Giant plant response rating (giant foxtail [2]; [20]) | Crabgrass, Large plant response rating (large crabgrass [5]; [20])
30: Oat, Wild plant response rating (wild oat; 500 g ai/ha) | Pigweed plant response rating (pigweed; 125 g ai/ha) | Surinam Grass plant response rating (Surinam grass; 500 g ai/ha) | Velvetleaf plant response rating (velvetleaf [10]; [20])
35: Plant response rating, Barnyardgrass (barnyardgrass [6]; [18])
90: Pigweed plant response rating (redroot pigweed; [17])
0: Plant response rating, Velvetleaf (velvetleaf [1]; [16]) | Plant response rating, Crabgrass, Large (large crabgrass [3]; [16]) | Sedge, Umbrella plant response rating [4] | Blackgrass plant response rating (blackgrass; 125 g ai/ha) | Blackgrass plant response rating (blackgrass; 500 g ai/ha) | Ducksalad plant response rating (ducksalad) | Plant response rating, Cocklebur (cocklebur; [15]) | Plant response rating, Cocklebur (cocklebur; [16]) | Rice plant response rating (rice [7]) | Foxtail, Giant plant response rating (giant foxtail [8]; 125 g ai/ha) | Plant response rating, Foxtail, Giant (giant foxtail [8]; [16]) | Plant response rating, Surinam Grass (Surinam grass; [16]) | Plant response rating, Rice (rice [9]) | Wheat plant response rating (wheat; 125 g ai/ha) | Wheat plant response rating (wheat; 500 g ai/ha) | Plant response rating, Corn (corn; [15]) | Corn plant response rating (corn; 125 g ai/ha) | Plant response rating, Corn (corn; [16]) | Barnyardgrass plant response rating (barnyardgrass [12]; 125 g ai/ha) | Barnyardgrass plant response rating (barnyardgrass [12]; 500 g ai/ha) | Plant response rating, Barnyardgrass (barnyardgrass [12]; [16]) | Morningglory plant response rating (morningglory [13]; 125 g ai/ha) | Morningglory plant response rating (morningglory [13]; 500 g ai/ha) | Plant response rating, Morningglory (morningglory [13]; [16]) | Barnyardgrass plant response rating (barnyardgrass [14])
50: Plant response rating, Crabgrass, Large (large crabgrass [3]; [15]) | Pigweed plant response rating (pigweed; 500 g ai/ha)
15: Foxtail, Giant plant response rating (giant foxtail [2]; [17]) | Barnyardgrass plant response rating (barnyardgrass [6]; [19]) | Plant response rating, Velvetleaf (velvetleaf [10]; [18])
25: Plant response rating, Foxtail, Giant (giant foxtail [2]; [18]) | Foxtail, Giant plant response rating (giant foxtail [2]; [19])
80: Plant response rating, Pigweed (pigweed; [16]) | Plant response rating, Barnyardgrass (barnyardgrass [12]; [15]) | Lambsquarters plant response rating (lambsquarters; 125 g ai/ha) | Lambsquarters plant response rating (lambsquarters; 500 g ai/ha)
